As a reminder, the IC50 is the concentration needed to halve the response being measured. A low value points to higher potency.

For one test, the target named is T1, mouse P2X4 (Mus musculus, UniProt Q9JJX6).
T1 construct: expressed in transfected cells; host or cells: 1321N1 astrocytoma cells
T1 sequence (Q9JJX6 1-388): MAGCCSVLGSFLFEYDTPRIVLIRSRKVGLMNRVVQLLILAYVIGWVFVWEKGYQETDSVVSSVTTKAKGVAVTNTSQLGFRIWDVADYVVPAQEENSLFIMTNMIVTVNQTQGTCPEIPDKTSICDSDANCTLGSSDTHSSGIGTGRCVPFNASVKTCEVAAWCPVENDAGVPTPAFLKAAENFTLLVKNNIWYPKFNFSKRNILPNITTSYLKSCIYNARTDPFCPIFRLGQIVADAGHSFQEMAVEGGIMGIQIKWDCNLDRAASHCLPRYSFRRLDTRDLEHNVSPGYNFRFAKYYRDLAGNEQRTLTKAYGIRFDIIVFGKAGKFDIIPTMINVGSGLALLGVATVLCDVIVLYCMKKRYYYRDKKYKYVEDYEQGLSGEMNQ
Put plainly: FLIPR assay, mouse P2X4 1321N1 Astrocytoma Cells. It is filed as cell-based. Particulars: agonist Mg-ATP at EC80. Here is the method:
1321N1 Astrocytoma cells stably expressing human P2X4 or rat P2X4 or mouse P2X4 were plated in Collagen ITO-treated microplate at a seeding density of 10000 cells/well and incubated overnight. P2X4 function was assessed by measuring intracellular calcium changes using the calcium-chelating dye Fluo8-AM (Molecular Devices) on a fluorescent imaging plate reader (FLEX/FLIPR station; Molecular Devices). On the day of the assay, the medium was removed and the cells were incubated for 30 min at […] and 5% CO2 in 30 μL of dye buffer (Hank's balanced salt solution, 10 mM HEPES, 1.8 mM CaCl2, 1 mM MgCl2, 2 mM probenecid, 5 mM D-glucose monohydrate, 5 μM Fluo8-AM, pH=7.4). Compounds diluted in probenecid buffer (Hank's balanced salt solution, 10 mM HEPES, 1.8 mM CaCl2, 1 mM MgCl2, 2 mM probenecid, 5 mM D-glucose monohydrate, pH=7.4) were added in a volume of 10 μL and allowed to incubate for 30 min at room temperature. The final assay DMSO concentration was 0.25%. The agonist, Mg-ATP (Sigma), was added in a volume of 10 μL at a concentration representing the EC80 value. EC80 was determined to be 0.5 μM for human and mouse P2X4 and 5 μM for rat P2X4. The fluorescence was measured for an interval of 120 sec at 2 sec intervals. The excitation and emission wavelengths used to monitor fluorescence were 470-495 nm and 515-575 nm, respectively. The data was analyzed based on the increase in peak relative fluorescence units (RFU) compared to the basal fluorescence and the data was normalized to the agonist control. The compounds were tested in triplicates per plate and mean values were plotted in Excel XLFit to determine IC50 values, percentage of maximal inhibition and the Hill coefficients.

The target of the next test is T2, human P2X4 (Homo sapiens, UniProt Q99571).
T2 sequence (Q99571 1-388): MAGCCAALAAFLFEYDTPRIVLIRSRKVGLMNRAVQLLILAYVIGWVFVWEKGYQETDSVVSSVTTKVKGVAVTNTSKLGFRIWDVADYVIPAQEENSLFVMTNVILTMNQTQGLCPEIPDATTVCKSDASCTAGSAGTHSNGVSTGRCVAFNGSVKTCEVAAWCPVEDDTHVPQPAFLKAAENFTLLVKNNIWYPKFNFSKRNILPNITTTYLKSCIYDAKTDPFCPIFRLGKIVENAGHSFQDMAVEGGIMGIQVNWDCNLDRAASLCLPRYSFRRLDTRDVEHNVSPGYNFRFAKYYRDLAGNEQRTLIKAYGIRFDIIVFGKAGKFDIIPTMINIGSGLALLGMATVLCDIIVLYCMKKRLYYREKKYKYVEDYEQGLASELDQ
Put plainly: Human P2X4 HEK Cell FLIPR Assay. The arrangement: expressed in transfected cells; host or cells: HEK293. Particulars: HEK293 cells, agonist Bz-ATP at EC80. The test is classed as cell-based. Here is the method:
HEK293 cells stably expressing human P2X4 were plated in poly-D-lysine-coated 384-well plates at a seeding density of 30000 cells/well and incubated overnight. P2X4 function was assessed by measuring intracellular calcium changes using the calcium-chelating dye Fluo8-AM (Molecular Devices) on a fluorescent imaging plate reader (FLEX/FLIPR station; Molecular Devices). On the day of the assay, the medium was removed and the cells were incubated for 30 min at 37° C. and 5% CO2 in 30 μL of dye buffer (Hank's balanced salt solution, 10 mM HEPES, 1.8 mM CaCl2, 1 mM MgCl2, 2 mM probenecid, 5 mM D-glucose monohydrate, 5 μM Fluo8-AM, pH=7.4). Compounds diluted in probenecid buffer (Hank's balanced salt solution, 10 mM HEPES, 1.8 mM CaCl2, 1 mM MgCl2, 2 mM probenecid, 5 mM D-glucose monohydrate, pH=7.4) were added in a volume of 10 μL and allowed to incubate for 30 min at room temperature. The final assay DMSO concentration was 0.5%. The agonist, Bz-ATP (Tocris), was added in a volume of 10 μL at a concentration representing the EC80 value. The EC80 value of Bz-ATP was determined each assay day prior to compound profiling. The fluorescence was measured for an interval of 120 sec at 2 sec intervals. The excitation and emission wavelengths used to monitor fluorescence were 470-495 nm and 515-575 nm, respectively. The data was analyzed based on the increase in peak relative fluorescence units (RFU) compared to the basal fluorescence and the data was normalized to the agonist control. The compounds were tested in triplicates per plate and mean values were plotted in Excel XL-Fit to determine IC50 values, percentage of maximal inhibition and the Hill coefficients.

Take `NS(=O)(=O)c1cc(NC(=O)Cc2ccccc2Cl)ccc1-n1cc(C(F)(F)F)cn1` [Example 19, 2-(2-Chlorophenyl)-N-{3-sulfamoyl-4-[4-(trifluoromethyl)-1H-pyrazol-1-yl]phenyl}acetamide]: at mouse P2X4, the IC50 was 0.043 µM and the “Mouse P2X4 1321N1 Astrocytoma Cells (FLIPR Assay) avg Efficacy” value (“Mouse P2X4 1321N1 Astrocytoma Cells” for short) is reported as 69%. Further, the IC50 at human P2X4 came to 0.047 µM.

On to `NS(=O)(=O)c1cc(NC(=O)Cc2ccccc2Cl)cnc1-n1cc(C(F)(F)F)cn1` [Example 380, 2-(2-Chlorophenyl)-N-{5-sulfamoyl-6-[4-(trifluoromethyl)-1H-pyrazol-1-yl]pyridin-3-yl}acetamide], for which the IC50 on human P2X4 is 0.299 µM.

As for `NS(=O)(=O)c1cc(NC(=O)Cc2ccccc2Cl)ccc1-c1cnn(C(F)F)c1` [Example 326, 2-(2-Chlorophenyl)-N-{4-[1-(difluoromethyl)-1H-pyrazol-4-yl]-3-sulfamoylphenyl}acetamide], the IC50 worked out at 0.026 µM at mouse P2X4 and 0.017 µM at human P2X4. The “Mouse P2X4 1321N1 Astrocytoma Cells” value on mouse P2X4 was determined as 87%.

For the compound `NS(=O)(=O)c1cc(NC(=O)Cc2ccccc2Cl)ccc1-n1cc(F)cn1` [Example 26, 2-(2-Chlorophenyl)-N-[4-(4-fluoro-1H-pyrazol-1-yl)-3-sulfamoylphenyl]acetamide], the IC50 on human P2X4 came to 0.027 µM.

Turning to `N#Cc1cnn(-c2ccc(NC(=O)Cc3ccccc3Cl)cc2S(N)(=O)=O)c1` [Example 39, 2-(2-Chlorophenyl)-N-[4-(4-cyano-1H-pyrazol-1-yl)-3-sulfamoylphenyl]acetamide], on mouse P2X4, the IC50 was found to be 0.037 µM and the “Mouse P2X4 1321N1 Astrocytoma Cells” value was found to be 87%. At human P2X4, this compound gave an IC50 of 0.032 µM.

For the origin of these results see patent US20210179577A1, “AROMATIC SULFONAMIDE DERIVATIVES FOR THE TREATMENT OF ISCHEMIC STROKE” (Bayer Aktiengesellschaft, priority 2017, published 2021).
